Experimental data taken from US5679701A (priority 1996, dated 1997).
Several values for one entry are separate records, joined by “and”; a condition that tells them apart may be missing. Equal values may be shown once. Entries after “also recorded” stand apart in the source; their conditions may differ. Read-outs that look alike come from different tables or passages of the source.

Assays:
[1] = target: T1, ryanodine receptor (skeletal sarcoplasmic reticulum membrane vesicles) (Oryctolagus cuniculus, UniProt P11716); assay: biochemical; type: binding
T1 construct: skeletal sarcoplasmic reticulum membrane vesicles; from tissue; host or cells: skeletal muscle sarcoplasmic reticulum membrane vesicles
T1 sequence (P11716 whole entry): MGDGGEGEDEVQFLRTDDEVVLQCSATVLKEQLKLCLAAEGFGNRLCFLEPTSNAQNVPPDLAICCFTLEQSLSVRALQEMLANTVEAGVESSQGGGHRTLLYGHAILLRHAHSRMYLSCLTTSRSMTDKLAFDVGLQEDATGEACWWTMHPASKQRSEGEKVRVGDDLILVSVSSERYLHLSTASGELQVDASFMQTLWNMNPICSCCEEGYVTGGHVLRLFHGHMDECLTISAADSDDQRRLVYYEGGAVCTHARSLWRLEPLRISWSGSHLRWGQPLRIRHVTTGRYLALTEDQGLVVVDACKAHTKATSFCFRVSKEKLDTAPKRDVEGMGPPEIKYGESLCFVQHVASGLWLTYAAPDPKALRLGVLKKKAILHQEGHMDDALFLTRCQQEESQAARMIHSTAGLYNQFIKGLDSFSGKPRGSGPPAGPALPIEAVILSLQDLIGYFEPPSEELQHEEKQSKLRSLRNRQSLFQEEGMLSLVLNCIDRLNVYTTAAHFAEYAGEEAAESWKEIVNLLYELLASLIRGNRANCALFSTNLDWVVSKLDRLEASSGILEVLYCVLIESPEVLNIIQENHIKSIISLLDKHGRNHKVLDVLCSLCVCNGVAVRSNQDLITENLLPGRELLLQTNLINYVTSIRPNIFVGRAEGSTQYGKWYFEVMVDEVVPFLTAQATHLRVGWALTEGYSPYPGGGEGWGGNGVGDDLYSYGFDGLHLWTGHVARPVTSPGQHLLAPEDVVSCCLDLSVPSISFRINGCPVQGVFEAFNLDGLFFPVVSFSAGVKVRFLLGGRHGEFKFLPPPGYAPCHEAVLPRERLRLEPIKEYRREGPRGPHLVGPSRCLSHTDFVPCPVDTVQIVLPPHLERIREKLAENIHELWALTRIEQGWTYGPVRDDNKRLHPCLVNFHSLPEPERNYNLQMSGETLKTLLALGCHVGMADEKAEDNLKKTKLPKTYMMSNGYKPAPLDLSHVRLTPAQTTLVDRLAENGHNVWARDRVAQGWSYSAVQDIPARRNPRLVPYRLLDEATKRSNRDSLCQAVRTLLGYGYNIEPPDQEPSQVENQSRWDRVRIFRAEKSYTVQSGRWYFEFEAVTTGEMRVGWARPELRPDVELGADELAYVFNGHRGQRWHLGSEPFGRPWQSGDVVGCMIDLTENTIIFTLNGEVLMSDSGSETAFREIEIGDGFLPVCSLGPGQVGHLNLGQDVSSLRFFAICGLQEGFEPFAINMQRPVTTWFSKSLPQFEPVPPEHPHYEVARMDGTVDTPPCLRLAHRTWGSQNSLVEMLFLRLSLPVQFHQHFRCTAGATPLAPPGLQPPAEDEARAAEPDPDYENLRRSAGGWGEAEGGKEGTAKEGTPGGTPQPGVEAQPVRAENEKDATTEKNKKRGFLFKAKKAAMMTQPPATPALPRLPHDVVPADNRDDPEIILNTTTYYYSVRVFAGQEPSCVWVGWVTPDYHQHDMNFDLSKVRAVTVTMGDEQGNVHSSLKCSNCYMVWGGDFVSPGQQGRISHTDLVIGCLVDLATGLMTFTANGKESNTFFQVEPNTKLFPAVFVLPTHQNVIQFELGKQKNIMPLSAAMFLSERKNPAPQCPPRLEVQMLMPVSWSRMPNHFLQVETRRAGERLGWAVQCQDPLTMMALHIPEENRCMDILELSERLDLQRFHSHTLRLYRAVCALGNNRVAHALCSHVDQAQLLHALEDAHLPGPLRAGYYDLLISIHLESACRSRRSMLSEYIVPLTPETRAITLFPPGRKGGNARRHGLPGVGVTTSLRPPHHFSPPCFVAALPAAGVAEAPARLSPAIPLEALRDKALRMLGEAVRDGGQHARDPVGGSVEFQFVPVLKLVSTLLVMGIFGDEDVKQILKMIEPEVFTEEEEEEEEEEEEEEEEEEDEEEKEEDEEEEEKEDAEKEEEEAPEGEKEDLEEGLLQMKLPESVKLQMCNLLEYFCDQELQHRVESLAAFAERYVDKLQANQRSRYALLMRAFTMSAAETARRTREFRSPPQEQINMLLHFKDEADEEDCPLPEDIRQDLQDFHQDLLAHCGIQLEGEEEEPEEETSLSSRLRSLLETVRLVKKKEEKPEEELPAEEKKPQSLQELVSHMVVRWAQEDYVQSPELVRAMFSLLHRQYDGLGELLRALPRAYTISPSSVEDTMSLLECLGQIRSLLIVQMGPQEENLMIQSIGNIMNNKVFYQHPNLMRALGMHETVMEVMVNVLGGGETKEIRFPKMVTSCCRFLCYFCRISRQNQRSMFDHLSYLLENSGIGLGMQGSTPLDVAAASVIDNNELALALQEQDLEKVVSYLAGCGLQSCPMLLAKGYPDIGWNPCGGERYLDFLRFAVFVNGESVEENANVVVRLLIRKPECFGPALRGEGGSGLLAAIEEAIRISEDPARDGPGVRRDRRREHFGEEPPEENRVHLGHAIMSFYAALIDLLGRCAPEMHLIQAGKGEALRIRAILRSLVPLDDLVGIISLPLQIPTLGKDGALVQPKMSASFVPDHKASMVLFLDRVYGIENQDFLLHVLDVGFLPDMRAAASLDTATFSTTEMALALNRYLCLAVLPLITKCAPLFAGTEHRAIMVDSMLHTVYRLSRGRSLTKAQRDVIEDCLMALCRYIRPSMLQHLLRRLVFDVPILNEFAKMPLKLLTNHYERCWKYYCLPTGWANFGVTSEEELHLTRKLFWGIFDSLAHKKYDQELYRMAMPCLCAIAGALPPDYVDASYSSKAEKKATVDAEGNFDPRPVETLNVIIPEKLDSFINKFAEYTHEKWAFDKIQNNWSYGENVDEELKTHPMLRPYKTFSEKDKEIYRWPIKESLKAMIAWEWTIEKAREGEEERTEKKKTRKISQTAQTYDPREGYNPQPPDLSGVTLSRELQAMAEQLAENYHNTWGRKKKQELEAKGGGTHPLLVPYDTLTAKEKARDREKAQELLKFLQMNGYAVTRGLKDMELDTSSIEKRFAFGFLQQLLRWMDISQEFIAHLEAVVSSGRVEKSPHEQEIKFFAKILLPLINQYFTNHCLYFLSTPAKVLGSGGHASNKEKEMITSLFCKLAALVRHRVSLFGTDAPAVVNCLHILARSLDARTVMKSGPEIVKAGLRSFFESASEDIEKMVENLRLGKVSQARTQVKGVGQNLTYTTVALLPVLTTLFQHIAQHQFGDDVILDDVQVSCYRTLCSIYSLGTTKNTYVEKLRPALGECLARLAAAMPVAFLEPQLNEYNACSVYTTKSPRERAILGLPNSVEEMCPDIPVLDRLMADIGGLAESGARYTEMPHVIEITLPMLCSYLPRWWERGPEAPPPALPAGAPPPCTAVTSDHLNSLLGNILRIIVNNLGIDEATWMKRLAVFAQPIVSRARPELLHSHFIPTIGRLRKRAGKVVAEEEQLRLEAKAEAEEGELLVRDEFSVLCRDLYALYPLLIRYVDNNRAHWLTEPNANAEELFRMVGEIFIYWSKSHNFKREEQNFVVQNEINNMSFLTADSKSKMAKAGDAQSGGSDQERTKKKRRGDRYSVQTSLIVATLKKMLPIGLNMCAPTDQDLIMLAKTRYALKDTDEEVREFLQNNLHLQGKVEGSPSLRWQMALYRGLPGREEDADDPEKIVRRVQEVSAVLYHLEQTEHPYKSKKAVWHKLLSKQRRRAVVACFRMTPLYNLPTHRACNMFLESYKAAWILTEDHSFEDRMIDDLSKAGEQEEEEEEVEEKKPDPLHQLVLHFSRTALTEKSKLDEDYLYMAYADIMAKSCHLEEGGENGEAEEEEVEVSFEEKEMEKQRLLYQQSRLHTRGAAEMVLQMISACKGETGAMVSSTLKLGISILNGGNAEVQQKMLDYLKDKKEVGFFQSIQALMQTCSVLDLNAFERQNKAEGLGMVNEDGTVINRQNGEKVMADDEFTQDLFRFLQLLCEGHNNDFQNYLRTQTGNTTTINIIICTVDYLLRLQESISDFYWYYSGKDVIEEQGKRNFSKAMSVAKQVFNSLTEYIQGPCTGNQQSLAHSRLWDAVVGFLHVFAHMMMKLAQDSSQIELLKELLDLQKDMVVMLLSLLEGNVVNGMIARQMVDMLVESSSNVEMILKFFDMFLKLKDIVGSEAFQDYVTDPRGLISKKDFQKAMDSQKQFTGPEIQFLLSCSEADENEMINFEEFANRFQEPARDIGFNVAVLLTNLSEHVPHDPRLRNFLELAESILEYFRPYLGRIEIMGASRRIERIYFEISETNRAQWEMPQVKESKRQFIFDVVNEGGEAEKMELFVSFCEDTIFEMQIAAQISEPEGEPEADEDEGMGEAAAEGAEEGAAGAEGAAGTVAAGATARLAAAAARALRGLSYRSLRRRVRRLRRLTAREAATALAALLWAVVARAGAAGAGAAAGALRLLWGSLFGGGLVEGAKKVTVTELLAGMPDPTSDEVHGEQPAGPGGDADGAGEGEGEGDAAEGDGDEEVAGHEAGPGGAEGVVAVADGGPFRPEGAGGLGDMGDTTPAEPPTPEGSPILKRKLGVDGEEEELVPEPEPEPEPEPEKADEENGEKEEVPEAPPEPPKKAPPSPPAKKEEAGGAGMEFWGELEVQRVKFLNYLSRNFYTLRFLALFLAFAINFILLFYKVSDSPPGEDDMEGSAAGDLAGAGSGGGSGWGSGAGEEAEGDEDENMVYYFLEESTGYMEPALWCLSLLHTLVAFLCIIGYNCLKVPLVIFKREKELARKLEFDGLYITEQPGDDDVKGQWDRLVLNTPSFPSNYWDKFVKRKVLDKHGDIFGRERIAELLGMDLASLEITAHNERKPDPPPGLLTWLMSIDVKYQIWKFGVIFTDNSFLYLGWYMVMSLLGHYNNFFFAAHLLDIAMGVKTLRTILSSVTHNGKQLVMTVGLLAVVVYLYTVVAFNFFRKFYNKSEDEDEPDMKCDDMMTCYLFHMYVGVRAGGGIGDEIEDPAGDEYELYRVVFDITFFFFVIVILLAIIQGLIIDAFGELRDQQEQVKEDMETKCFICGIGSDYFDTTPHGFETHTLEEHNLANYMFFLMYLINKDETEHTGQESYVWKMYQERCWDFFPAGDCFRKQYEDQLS

[2] = tested on: SR Ca^++ release channel/ryanodine receptor (cardiac and skeletal muscle vesicles); type: biochemical
[3] = target: T2, Sarcoplasmic Reticular Ca^++ -Release Channel (ryanodine receptor) (Oryctolagus cuniculus, UniProt P11716); assay: biochemical; type: binding
T2 construct: skeletal sarcoplasmic reticulum membrane vesicles; from tissue; host or cells: skeletal muscle sarcoplasmic reticulum membrane vesicles
T2 sequence (P11716 whole entry): as above

[4] = target: SR Ca^2+ release channel (junctional SR vesicles from rabbit skeletal muscle) (Oryctolagus cuniculus, UniProt P11716); assay: biochemical; type: biochemical; settings: for closing (deactivation) of the SR CRC (in words): higher concentrations, up to 1 mM for V-II, XXI preliminary; for pharmacological profile (in words): vs biphasic profile of ryanodine
Chain of SR Ca^2+ release channel (junctional SR vesicles from rabbit skeletal muscle) (P11716 whole entry): as above
Experimental: Briefly, junctional SR vesicles from rabbit skeletal muscle were passively loaded with. ^45 Ca^2+ in the presence and absence of the esters. Ca^2+ -efflux was then initiated by diluting the vesicles 100-fold into a low Ca^2+ -concentration. ^45 Ca^2+ remaining in the vesicles was determined after a 3 sec. efflux period by termination and filtration of the vesicles followed by liquid scintillation counting.

[5] = Table I, displacement of 6.7 nM [3H]ryanodine, mean ± standard deviation of replicates, read-out: IC50
[6] = Table I, mean ± standard deviation of replicates, read-out: KD
[7] = second embodiment, read-out: IC50
[8] = first embodiment, read-out: IC50
[9] = Table II, more highly purified standards, read-out: IC50 (nM) ± S.D.

C=C1CCC2(O)C3(C)CC4(O)OC2(C1O)C1(O)C3(O)C(OC(=O)c2ccc[nH]2)C(O)(C(C)C)C41C (stereo not shown) [Dehydroryanodine, dehydroryanodine]
IC50 [1]: 16.1 ± 4.1 nM | Kd [1]: 5.4 ± 0.1 nM | closing of the SR Ca^++ release channel (in words) ([2]; I, NMDS: concentrations as high as 300 μM, ryanodine, dehydroryanodine: >μM): the channel is closed | opening of the SR Ca^++ release channel (in words) ([2]; ryanodine, dehydroryanodine: low concentrations (<μM)): opens the SR Ca^++ release channel/ryanodine receptor; also recorded: the Ca^++ release channel is opened

CC1CCC2(O)C3(C)CC4(O)OC2(C1OC(=O)CNC(=O)OCc1ccccc1)C1(O)C3(O)C(OC(=O)c2ccc[nH]2)C(O)(C(C)C)C41C (stereo not shown) [I, O10eq-[(N'Carbobenzyloxy)-Glycyl]-Ryanodine]
IC50 [1, 5]: 22.3 ± 7.3 nM | Kd [1, 6]: 6.6 ± 2 nM | relative binding affinity compared with ryanodine (in words) ([3]; vs ryanodine): slightly enhanced affinity | closing of the SR Ca^++ release channel (in words) [2]: neither XVII(NMDS) nor CBZ-glycyl-ryanodine (I) exhibits significant ability to close the channel | opening of the SR Ca^++ release channel (in words) [2]: only slightly less active than ryanodine for opening the channel; also recorded: same selective activity of only opening this channel, albeit at higher dose levels | potency and selectivity comparison (in words) ([2]; I vs XVIII (NMDS)): more potent and more selective than XVIII(NMDS)

C=C1CCC2(O)C3(C)CC4(O)OC2(C1OC(=O)CCNC(=O)c1ccccc1)C1(O)C3(O)C(OC(=O)c2ccc[nH]2)C(O)(C(C)C)C41C (stereo not drawn) [II, O10eg -(N-Benzoyl-β-alanyl)-Dehydroryanodine]
IC50 [1, 5]: 25.1 ± 8.2 nM | Kd [1, 6]: 8.2 ± 3.2 nM

C=C1CCC2(O)C3(C)CC4(O)OC2(C1OC(=O)CCNC(=O)C12CC5CC(CC(C5)C1)C2)C1(O)C3(O)C(OC(=O)c2ccc[nH]2)C(O)(C(C)C)C41C (stereo not drawn) [III, O10eq-[N-(1-Adamantanecarbonyl)-β-Alanyl]-Dehydroryanodine]
IC50 [1, 5]: 72.8 ± 6.2 nM | Kd [1, 6]: 26.9 ± 3.6 nM

CC1CCC2(O)C3(C)CC4(O)OC2(C1OC(=O)CCNC(=O)OCc1ccccc1)C1(O)C3(O)C(OC(=O)c2ccc[nH]2)C(O)(C(C)C)C41C (stereo not drawn) [IV, O10eq. -Carbobenzyloxy-β-alanyl-ryanodine]
IC50 [1, 5]: 12.3 ± 1 nM | Kd [1, 6]: 4 ± 0.2 nM | IC50 ([1]; restated for adjustment, read-out: IC50 value (Table I value as restated in text)): 12.3 nM | IC50 ([3]; Table I value multiplied by 6.2/11.9=0.52, read-out: adjusted IC50 value): 6.4 nM | IC50 [3, 7]: 5.9 nM | relative binding affinity compared with ryanodine (in words) ([3]; vs ryanodine): slightly enhanced affinity | opening of the SR Ca^++ release channel (in words) [2]: same selective activity of only opening this channel, albeit at higher dose levels

CC1=C(C(C)C)C(OC(=O)c2ccc[nH]2)C2(O)C3(C)CC(=O)OC4(C(OC(=O)CCN)C(C)CCC34O)C12O (stereo not drawn) [V-I, O10eq -β-Alanyl-Anhydroryanodine]
IC50 [1, 5]: 37 nM | IC50 [1, 8]: 106 nM | Kd ([1]; first embodiment, read-out: KD): 37 nM | binding affinity as fraction of that of Ryanodine ([1]; vs ryanodine): 1/10

CC1CCC2(O)C3(C)CC4(O)OC2(C1OC(=O)CCN)C1(O)C3(O)C(OC(=O)c2ccc[nH]2)C(O)(C(C)C)C41C (stereo not drawn) [V-II, O10eq -β-Alanyl-Ryanodine]
opening (activation) of the SR CRC (in words) [4]: induces full opening of the SR CRC | EC (maximal activation) ([4]; 3 s, 45Ca2+ efflux, skeletal SR vesicles, read-out: concentration of maximal channel activation): 10 µM | closing (deactivation) of the SR CRC (in words) [4]: none of the closing action seen with high concentrations of ryanodine | shift of activation curve relative to ryanodine ([4]; towards lower concentrations): three-fold | pharmacological profile (in words) [4]: altered--unidirectional--pharmacological profile, differing from the biphasic profile of ryanodine | binding affinity for the ryanodine receptor (in words) [1]: approximately four-fold higher affinity | Kd [1, 6]: 1 ± 0.3 nM | IC50 ([1]; V-II from direct preparation by hydrogenolysis of IV in presence of triethylamine, read-out: IC50): 4.3 nM | IC50 [1, 8]: 2.8 ± 0.8 nM | Kd ([1]; first embodiment, read-out: KD): 1 nM | binding affinity to the ryanodine receptor relative to ryanodine (times stronger/greater) ([1]; vs ryanodine): 3.5-4 times and 4 times | relative binding affinity compared with ryanodine (in words) ([3]; vs ryanodine): two to three-fold greater RBA | opening of the SR Ca^++ release channel (in words) [2]: exhibits only the ability to enhance Ca^++ flux by opening the SR Ca^++ channel

CC1CCC2(O)C3(C)CC4(O)OC2(C1OC(=O)CCNC(=O)c1cc(N=[N+]=[N-])ccc1[N+](=O)[O-])C1(O)C3(O)C(OC(=O)c2ccc[nH]2)C(O)(C(C)C)C41C (stereo not drawn) [VI, O10eq-[N-(5-Azido-2-nitrobenzoyl)-β-Alanyl] Ryanodine]
binding affinity for the ryanodine receptor (in words) [1]: of a similar magnitude as that of ryanodine | IC50 [1, 5]: 36.6 ± 2.8 nM | Kd [1, 6]: 12.5 ± 1 nM | Kd ([1]; VI prepared from V-II, read-out: KD (50)): 12.5 ± 1 nM | IC50 ([1]; VI prepared from V, read-out: IC50): 37.2 ± 9.7 nM | Kd ([1]; VI prepared from V, read-out: KD): 14 ± 3.6 nM | IC50 [1, 8]: 36.6 ± 2.8 nM | Kd ([1]; first embodiment, read-out: KD): 12.5 ± 1 nM

C=C1CCC2(O)C3(C)CC4(O)OC2(C1OC(=O)CCNC(=O)c1ccc(I)cc1)C1(O)C3(O)C(OC(=O)c2ccc[nH]2)C(O)(C(C)C)C41C (stereo not drawn) [XII, p-Iodobenzoyl-β-alanyl-dehydroryanodine]
binding affinity for the ryanodine receptor (in words) [1]: binds effectively to the ryanodine receptor | IC50 [1, 5]: 16 nM | Kd [1, 6]: 5.2 nM | IC50 [1, 8]: 16 nM | Kd ([1]; first embodiment, read-out: KD): 5.2 nM

C=C1CCC2(O)C3(C)CC4(O)OC2(C1OC(=O)CCNC(=O)c1ccc(OCCCC)cc1)C1(O)C3(O)C(OC(=O)c2ccc[nH]2)C(O)(C(C)C)C41C (stereo not drawn) [XIII, O10eq-[N-(p-n-Butoxybenzoyl)-β-Alanyl]-Dehydroryanodine]
IC50 [1, 5]: 28 ± 6.6 nM | Kd [1, 6]: 9.7 ± 2.5 nM | IC50 [1, 8]: 20.2 nM | Kd ([1]; first embodiment, read-out: KD): 6 nM

CC1CCC2(O)C3(C)CC4(O)OC2(C1OC(=O)CCNC(=O)CCCCC1SCC2NC(=O)NC21)C1(O)C3(O)C(OC(=O)c2ccc[nH]2)C(O)(C(C)C)C41C (stereo not drawn) [XIV, O10eq -N-Biotinlyl-β-Alanyl-Ryanodine]
IC50 [1, 5]: 65.1 ± 5.5 nM | Kd [1, 6]: 24.9 ± 1.4 nM | IC50 [1, 8]: 65.1 ± 3.5 nM | Kd ([1]; first embodiment, read-out: KD): 24.9 ± 1.4 nM

CC1=CC(C)=[N+]2C1=Cc1ccc(CCC(=O)NCCC(=O)OC3C(C)CCC4(O)C5(C)CC6(O)OC34C3(O)C5(O)C(OC(=O)c4ccc[nH]4)C(O)(C(C)C)C63C)n1[B-]2(F)F (stereo not drawn) [XV, O10eq -N-BODIPY(FL C3)-β-Alanyl-Ryanodine]
IC50 [1, 5]: 41.2 ± 2.7 nM | Kd [1, 6]: 15.8 ± 1 nM | IC50 [1, 8]: 41.2 ± 2.7 nM | Kd ([1]; first embodiment, read-out: KD): 15.8 ± 1 nM

C=C1CCC2(O)C3(C)CC4(O)OC2(C1OC(=O)CCC(=O)O)C1(O)C3(O)C(OC(=O)c2ccc[nH]2)C(O)(C(C)C)C41C (stereo not shown) [XVII, Dehydroryanodine-O10eg -Hemi-Succinate]
IC50 ([1]; IC50 (nM)): > 1000 nM

C=C1CCC2(O)C3(C)CC4(O)OC2(C1OC(=O)CCC(=O)NC)C1(O)C3(O)C(OC(=O)c2ccc[nH]2)C(O)(C(C)C)C41C (stereo not shown) [XVIII, N-Methyl-Dehydroryanodine-Succinamidate]
IC50 ([1]; IC50 (nM)): 49.4 ± 10.6 nM | Kd [1, 6]: 19.9 ± 5.8 nM | closing of the SR Ca^++ release channel (in words) [2]: neither XVII(NMDS) nor CBZ-glycyl-ryanodine (I) exhibits significant ability to close the channel | opening of the SR Ca^++ release channel (in words) [2]: only slightly less active than ryanodine for opening the channel

CC1CCC2(O)C3(C)CC4(O)OC2(C1OC(=O)CCNC(=NC(=O)OCc1ccccc1)NC(=O)OCc1ccccc1)C1(O)C3(O)C(OC(=O)c2ccc[nH]2)C(O)(C(C)C)C41C (stereo not drawn) [XX, O10eq -β-N,N'-bis-Cbz-guanidino-propionyl-ryanodine]
IC50 [3, 9]: 43.6 nM | lessened affinity compared with ryanodine ([3]; vs ryanodine): 7-20 fold

CC1CCC2(O)C3(C)CC4(O)OC2(C1OC(=O)CCNC(=N)N)C1(O)C3(O)C(OC(=O)c2ccc[nH]2)C(O)(C(C)C)C41C (stereo not drawn) [XXI, O10eq -β-Guanidinopropionyl-Ryanodine]
opening (activation) of the SR CRC (in words) [4]: appears to be purely an activator of the SR CRC | closing (deactivation) of the SR CRC (in words) [4]: entirely lack the ability of ryanodine to close the SR CRC | pharmacological profile (in words) [4]: altered--unidirectional--pharmacological profile, differing from the biphasic profile of ryanodine | IC50 [3, 9]: 1.1 ± 0.1 nM | relative binding affinity compared with ryanodine (in words) ([3]; vs ryanodine): about six times greater than that of ryanodine | relative binding affinity compared with ryanodine (in words) ([3]; vs ryanodine, listed as O10eq -β-guanidinopropyl-ryanodine): high binding affinity

CC1CCC2(O)C3(C)CC4(O)OC2(C1OC(=O)CN)C1(O)C3(O)C(OC(=O)c2ccc[nH]2)C(O)(C(C)C)C41C (stereo not shown) [XXII, O10eq -glycyl-ryanodine]
IC50 [3, 9]: 1.8 ± 0.4 nM

CC1CCC2(O)C3(C)CC4(O)OC2(C1OC(=O)CNC(=NC(=O)OCc1ccccc1)NC(=O)OCc1ccccc1)C1(O)C3(O)C(OC(=O)c2ccc[nH]2)C(O)(C(C)C)C41C (stereo not shown) [XXIII, O10eq -N,N'-bis-(Cbz)-guanidinoacetyl-ryanodine]
lessened affinity compared with ryanodine [3]: 7-20 fold | IC50 ([3]; IC50 (nM) ± S.D.): 136 nM

CC1CCC2(O)C3(OC4(O)C[C@]2(C)C2(O)[C@H](OC(=O)c5ccc[nH]5)C(O)(C(C)C)C4(C)C32O)[C@@H]1OC(=O)CN=C(N)N (stereo partly shown) [XXIV, O10eq -Guanidinoacetyl-Ryanodine]
IC50 [3, 9]: 1.8 ± 0.2 nM | IC50 [3, 7]: 1.8 nM

C=C1CCC2(O)C3(C)CC4(O)OC2(C1OC(=O)CCNC(=O)OCc1ccccc1)C1(O)C3(O)C(OC(=O)c2ccc[nH]2)C(O)(C(C)C)C41C (stereo not drawn) [XXV, O10eq -CBZ-β-Alanyl-Dehydroryanodine]
IC50 [3, 9]: 4.43 nM

C=C1CCC2(O)C3(C)CC4(O)OC2(C1OC(=O)CCN)C1(O)C3(O)C(OC(=O)c2ccc[nH]2)C(O)(C(C)C)C41C (stereo not drawn) [XXVI, O10eq -β-Alanyl-Dehydroryanodine]
IC50 [3, 9]: 3.36 nM

CC1CCC2(O)C3(C)CC4(O)OC2(C1OC(=O)CCNC(=O)CCNC(=O)c1cc(I)c(N=[N+]=[N-])cc1O)C1(O)C3(O)C(OC(=O)c2ccc[nH]2)C(O)(C(C)C)C41C (stereo not drawn) [XXXI, O10eq N-(4-azido-5-^125 Iodosalicyloyl)-β-alanyl-β-alanyl ryanodine]
deactivation of the CRC in calcium flux experiments (in words) ([4]; concentrations greater than 1 mM, non-radioactive compound): does not deactivate the CRC | IC50 ([1]; non-radioactive compound, read-out: IC50): 25.1 ± 2.5 nM
